From ChEMBL document CHEMBL1201862, “PubChem BioAssay data set” (2004)
Active and inactive are the calls of the source.

What was measured:
[1] = molecular target: T1, Long-chain-fatty-acid--AMP ligase FadD28 (Mycobacterium tuberculosis, UniProt P9WQ59); test: Fluorescence polarization aasay to screen for inhibitors that compete for the binding of FadD28 to a bisubstrate Measured in Biochemical System Using Plate Reader - 2147-01_Inhibitor_Dose_CherryPick_Activity.; type: functional, Mycobacterium tuberculosis H37Rv
T1 sequence (P9WQ59 whole entry): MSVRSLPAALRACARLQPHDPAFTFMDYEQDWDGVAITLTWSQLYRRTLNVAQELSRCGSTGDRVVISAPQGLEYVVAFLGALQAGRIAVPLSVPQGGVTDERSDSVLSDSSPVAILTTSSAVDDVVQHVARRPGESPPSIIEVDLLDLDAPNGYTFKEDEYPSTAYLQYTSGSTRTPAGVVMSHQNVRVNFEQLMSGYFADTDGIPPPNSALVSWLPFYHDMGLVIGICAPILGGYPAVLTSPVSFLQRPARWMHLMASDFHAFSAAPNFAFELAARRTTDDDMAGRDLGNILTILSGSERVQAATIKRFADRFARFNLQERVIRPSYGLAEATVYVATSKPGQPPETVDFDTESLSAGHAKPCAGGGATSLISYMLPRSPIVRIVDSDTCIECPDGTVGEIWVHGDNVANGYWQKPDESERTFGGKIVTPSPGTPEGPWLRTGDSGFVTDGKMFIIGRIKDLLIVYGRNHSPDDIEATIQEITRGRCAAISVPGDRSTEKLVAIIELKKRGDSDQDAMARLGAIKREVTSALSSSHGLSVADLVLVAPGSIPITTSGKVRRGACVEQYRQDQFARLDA

[2] = molecular target: T2, Adenosylmethionine-8-amino-7-oxononanoate aminotransferase (Mycobacterium tuberculosis, UniProt P9WQ81); test: Mycobacterium tuberculosis BioA enzyme inhibitor Measured in Biochemical System Using Plate Reader - 2163-02_Inhibitor_Dose_CherryPick_Activity.; type: functional, Mycobacterium tuberculosis UT205
T2 sequence (P9WQ81 whole entry): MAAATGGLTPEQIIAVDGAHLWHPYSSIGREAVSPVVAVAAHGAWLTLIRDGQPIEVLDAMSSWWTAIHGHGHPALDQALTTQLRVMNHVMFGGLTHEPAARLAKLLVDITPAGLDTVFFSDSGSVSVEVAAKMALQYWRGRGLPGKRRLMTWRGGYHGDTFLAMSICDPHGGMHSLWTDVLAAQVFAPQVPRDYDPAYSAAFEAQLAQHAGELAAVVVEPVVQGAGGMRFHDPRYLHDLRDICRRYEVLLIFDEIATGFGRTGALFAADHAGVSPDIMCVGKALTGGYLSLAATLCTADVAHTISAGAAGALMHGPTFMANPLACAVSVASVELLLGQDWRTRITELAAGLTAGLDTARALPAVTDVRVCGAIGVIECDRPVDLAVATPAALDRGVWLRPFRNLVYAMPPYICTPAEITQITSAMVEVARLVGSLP

[3] = general mammalian cell viability loss – activator set, cherry-pick, cytotoxicity control for miR-122 modulator project, dose response (AID 720690); type: functional, cell-based;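 note: HEK293T human cells scored for general mammalian cytotoxicity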
[4] = viability of uninfected HEp-2 cells – cell-based, HTS, cytotoxicity control for RSV inhibitor project, dose response (AID 2410); type: functional; conditions: human respiratory syncytial virus
[5] = molecular target: T3, Oxysterols receptor LXR-beta (Homo sapiens, UniProt P55055); type: functional, cell-based;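 note: agonist activity at LXR measured by a cell-based luminescence readout across a dose range, run as a counterscreen for daf-12 agonists; HEK293 cells with Gal4-LXR fusion and GAL4-driven luciferase reporter; potency for activation of Gal4-LXR reporter so compounds are agonists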
T3 sequence (P55055 whole entry): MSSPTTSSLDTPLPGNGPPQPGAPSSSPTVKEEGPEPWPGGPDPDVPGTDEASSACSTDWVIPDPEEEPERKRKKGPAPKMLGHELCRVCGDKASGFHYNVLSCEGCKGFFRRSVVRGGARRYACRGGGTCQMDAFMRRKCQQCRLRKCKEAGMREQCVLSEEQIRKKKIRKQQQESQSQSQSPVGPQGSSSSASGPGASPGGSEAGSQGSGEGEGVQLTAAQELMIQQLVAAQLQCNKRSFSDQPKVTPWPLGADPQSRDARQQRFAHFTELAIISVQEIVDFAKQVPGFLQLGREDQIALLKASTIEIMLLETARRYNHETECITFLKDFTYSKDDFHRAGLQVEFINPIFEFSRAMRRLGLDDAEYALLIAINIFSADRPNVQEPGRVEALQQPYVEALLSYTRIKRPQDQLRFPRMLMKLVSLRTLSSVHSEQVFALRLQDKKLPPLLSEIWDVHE

[6] = HGIII-sPLA2 enzyme inhibition potency – biochemical, QFRET, IC50, dose response (AID 743457);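 note: green fluorescence rise as the enzyme cleaves BODIPY PC-A2 in liposomes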
[7] = bead-based luminescence quenchers, dual-tagged ARNT – biochemical, AlphaScreen, cherry-pick, artefact control for ARNT-TACC3 interaction inhibitor project, dose response (AID 651705); type: functional;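 note: AlphaScreen bead proximity signal that flags compounds interfering with the detection technology; potency reflects signal decrease which marks the compound as an assay artifact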
cells [8] = type: functional
[9] = blockers of bursicon-stimulated LGR2 cAMP reporter – cell-based, HEK293, CRE-luciferase reporter, cherry pick, set 2, dose response (AID 743343); type: functional;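 note: transfected cells were stimulated with diluted bursicon conditioned medium after compound addition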
[10] = luciferase reporter signal suppression in cells – H4 neuroglioma cells, luminescence, dose response (AID 1990); type: functional, cell-based
[11] = A549 cell cytotoxicity, dose response, cytotoxicity control, plate reader, cherry-pick, antagonist series (AID 743412); type: functional, cell-based
[12] = toxicity toward HepG2 liver cells – cell-based, plate reader, cherry-pick, antagonist series, cytotoxicity control, dose response (AID 743416); type: functional
[13] = Luminescence Cell-Based Dose Response HTS to Identify Inhibitors of 5'UTR Stem-Loop Driven Prion Protein mRNA Translation in H4 Neuroglioblastoma Cells. [Related pubchem assays: 1827 (Project Summary), 1813 (Primary HTS)]; type: functional
[14] = fluconazole-exposed Candida albicans growth modulators – fluorescence, retest, confirmation (AID 2467); type: functional, cell-based
[15] = alpha-synuclein stem-loop luciferase translation blockers – H4 neuroglioma cells, luminescence, confirmation (AID 1988); type: functional, cell-based
[16] = HepG2 cell cytotoxicity, dose response, cytotoxicity control for non-replicating M. tuberculosis project (AID 489018); type: functional; conditions: Mycobacterium tuberculosis
[17] = NIH-3T3 fibroblast cytotoxicity, dose response, cytotoxicity control, cell-based, fluorescence, Alamar Blue, secondary assay (AID 2327); type: functional;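 note: NIH-3T3 mouse fibroblasts cultured with fluconazole at 8 µg/mL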
INS1 = test: INS-1E survival protection against cytokine death – cell-based, luminescence, retest, dose response (AID 449756); type: functional; conditions: Rattus norvegicus;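 note: cell death triggered by IL-1 beta plus TNF-alpha plus IFN-gamma mixture; protective hits raise ATP signal compared with cytokine alone wells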
[18] = THP-1 cell cytotoxicity, dose response, cytotoxicity control for non-replicating M. tuberculosis project (AID 489025); type: functional
[19] = Vero E6 cell cytotoxicity, dose response, cytotoxicity control for non-replicating M. tuberculosis project, secondary assay (AID 492998); type: functional, VeroE6; conditions: Vero C1008
cells [20] = type: functional, cell-based
cells [21] = type: functional, cell-based; remark: listed apart in the source
Melanocortin receptor 4 = Melanocortin receptor 4 (Homo sapiens, UniProt P32245); type: functional, cell-based;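 note: Cell-based assay with luminescence read-out, confirmatory dose-response testing for agonist activity of biased ligands at MC4R; human U2OS cells with tagged receptor and beta-arrestin; potency of agonists that increase receptor coupling to beta-arrestin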
Prothrombin = Prothrombin (Bos taurus, UniProt P00735); test: thrombin protease inhibitors – biochemical, fluorescence polarization, uHTS hits, dose response (AID 602369); type: functional
[22] = molecular target: 26S proteasome non-ATPase regulatory subunit 14 (Homo sapiens, UniProt O00487); test: inhibition of proteasome subunit RPN11 – biochemical, fluorescence polarization, uHTS hits, confirmation (AID 602368); type: functional
[23] = molecular target: 72 kDa type IV collagenase (Homo sapiens, UniProt P08253); test: Dose Response validation of uHTS RPN11 inhibitor hits using a MMP-2 Fluorescence assay.; type: functional
[24] = molecular target: Eukaryotic translation initiation factor 4E (Mus musculus, UniProt P63073); test: blockers of eIF4G binding by eIF4E – biochemical, TR-FRET, dose response (AID 855); type: functional;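 note: potency for disrupting eIF4E binding to eIF4GI seen as loss of FRET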
Streptococcus = test: GAS UMAA2166 growth inhibition – luminescence, BacTiterGlo, counter-screen for streptokinase expression inhibitor project, dose response (AID 1915); type: functional, organism-based; conditions: Streptococcus;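 note: potency for reduction of bacterial viability or growth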
Streptokinase A = molecular target: T4, Streptokinase A (Streptococcus pyogenes serotype M1, UniProt P10520); test: viability-normalized secreted streptokinase activity reduction – plasminogen activation absorbance, OD405, dose response (AID 1914); type: functional, Streptococcus pyogenes M1 GAS;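 note: secreted streptokinase activity via plasminogen activation per viability signal from cell pellet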
T4 sequence (P10520 whole entry): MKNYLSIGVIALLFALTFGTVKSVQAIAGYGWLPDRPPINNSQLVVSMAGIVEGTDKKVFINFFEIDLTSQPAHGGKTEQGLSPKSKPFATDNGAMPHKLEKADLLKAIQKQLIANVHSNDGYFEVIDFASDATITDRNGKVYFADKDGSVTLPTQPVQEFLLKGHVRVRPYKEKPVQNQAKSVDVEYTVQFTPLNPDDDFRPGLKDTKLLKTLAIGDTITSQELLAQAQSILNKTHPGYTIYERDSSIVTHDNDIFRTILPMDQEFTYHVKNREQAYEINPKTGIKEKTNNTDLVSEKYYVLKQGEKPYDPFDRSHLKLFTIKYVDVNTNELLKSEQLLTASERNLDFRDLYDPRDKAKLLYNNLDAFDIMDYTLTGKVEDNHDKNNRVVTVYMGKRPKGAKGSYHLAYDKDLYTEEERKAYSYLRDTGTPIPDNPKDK

[25] = system: Streptococcus sp. 'group A'; test: Streptococcus pyogenes SK(-)GAS viability under kanamycin – luminescence, BacTiterGlo, confirmation, counter-screen for streptokinase expression inhibitor project, dose response (AID 1900); type: functional, organism-based; conditions: Streptococcus sp. 'group A'
[26] = Luminescence Cell-Based Dose Confirmation HTS to Identify Inhibitors of Platelet Dense Granule Release. [Related pubchem assays: 1663 (Primary HTS), 1678 (Summary of Project)]; type: functional
[27] = molecular target: Luciferin 4-monooxygenase (Photinus pyralis, UniProt P08659); test: inhibition of purified Photinus pyralis luciferase – biochemical, luminescence, dose response (AID 1891)
[28] = molecular target: FAD-linked sulfhydryl oxidase ALR (Homo sapiens, UniProt P55789); test: ALR-catalysed DTT oxidation blockers – biochemical, H2O2 detection, luminescence, cherry-pick, dose response (AID 493248)
Sequence of FAD-linked sulfhydryl oxidase ALR (P55789 whole entry): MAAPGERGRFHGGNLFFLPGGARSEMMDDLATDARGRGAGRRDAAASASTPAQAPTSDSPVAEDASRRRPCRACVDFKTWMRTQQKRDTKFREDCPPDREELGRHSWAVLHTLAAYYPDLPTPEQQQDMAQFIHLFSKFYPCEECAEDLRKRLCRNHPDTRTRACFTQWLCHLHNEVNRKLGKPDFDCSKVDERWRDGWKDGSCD

Sequence of Melanocortin receptor 4 (P32245 whole entry): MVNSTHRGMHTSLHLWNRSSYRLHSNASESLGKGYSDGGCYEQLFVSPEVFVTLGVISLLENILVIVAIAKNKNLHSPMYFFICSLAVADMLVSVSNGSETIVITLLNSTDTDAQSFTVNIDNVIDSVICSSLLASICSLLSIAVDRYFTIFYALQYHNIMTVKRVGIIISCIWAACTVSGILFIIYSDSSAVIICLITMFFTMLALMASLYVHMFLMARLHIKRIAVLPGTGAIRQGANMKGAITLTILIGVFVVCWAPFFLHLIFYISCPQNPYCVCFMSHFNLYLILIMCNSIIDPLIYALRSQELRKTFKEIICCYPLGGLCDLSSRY
Sequence of 26S proteasome non-ATPase regulatory subunit 14 (O00487 whole entry): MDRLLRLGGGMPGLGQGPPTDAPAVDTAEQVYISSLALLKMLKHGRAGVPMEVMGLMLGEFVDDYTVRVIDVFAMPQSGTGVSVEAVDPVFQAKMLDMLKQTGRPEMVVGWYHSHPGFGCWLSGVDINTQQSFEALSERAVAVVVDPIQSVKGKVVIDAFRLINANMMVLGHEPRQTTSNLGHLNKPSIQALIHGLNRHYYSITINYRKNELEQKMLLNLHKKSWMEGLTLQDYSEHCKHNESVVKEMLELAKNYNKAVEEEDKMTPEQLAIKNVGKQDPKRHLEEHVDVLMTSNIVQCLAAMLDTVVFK
Sequence of 72 kDa type IV collagenase (P08253 whole entry): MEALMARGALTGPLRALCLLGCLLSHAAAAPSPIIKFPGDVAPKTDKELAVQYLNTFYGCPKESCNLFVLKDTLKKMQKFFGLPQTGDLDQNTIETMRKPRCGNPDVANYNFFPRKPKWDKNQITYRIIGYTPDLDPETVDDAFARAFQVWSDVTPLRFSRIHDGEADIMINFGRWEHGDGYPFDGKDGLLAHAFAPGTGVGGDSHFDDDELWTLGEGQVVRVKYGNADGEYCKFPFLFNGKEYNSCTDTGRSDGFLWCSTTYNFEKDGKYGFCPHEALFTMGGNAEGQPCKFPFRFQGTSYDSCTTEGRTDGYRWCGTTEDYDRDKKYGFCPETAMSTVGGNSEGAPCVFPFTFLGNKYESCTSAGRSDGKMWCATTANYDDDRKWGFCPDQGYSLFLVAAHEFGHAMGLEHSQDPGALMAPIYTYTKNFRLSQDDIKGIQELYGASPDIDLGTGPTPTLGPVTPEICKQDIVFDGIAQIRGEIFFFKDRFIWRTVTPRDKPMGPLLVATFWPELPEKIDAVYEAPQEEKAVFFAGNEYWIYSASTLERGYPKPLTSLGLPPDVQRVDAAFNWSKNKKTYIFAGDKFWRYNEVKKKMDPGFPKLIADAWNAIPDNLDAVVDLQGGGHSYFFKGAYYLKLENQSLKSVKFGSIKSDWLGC
Sequence of Luciferin 4-monooxygenase (P08659 whole entry): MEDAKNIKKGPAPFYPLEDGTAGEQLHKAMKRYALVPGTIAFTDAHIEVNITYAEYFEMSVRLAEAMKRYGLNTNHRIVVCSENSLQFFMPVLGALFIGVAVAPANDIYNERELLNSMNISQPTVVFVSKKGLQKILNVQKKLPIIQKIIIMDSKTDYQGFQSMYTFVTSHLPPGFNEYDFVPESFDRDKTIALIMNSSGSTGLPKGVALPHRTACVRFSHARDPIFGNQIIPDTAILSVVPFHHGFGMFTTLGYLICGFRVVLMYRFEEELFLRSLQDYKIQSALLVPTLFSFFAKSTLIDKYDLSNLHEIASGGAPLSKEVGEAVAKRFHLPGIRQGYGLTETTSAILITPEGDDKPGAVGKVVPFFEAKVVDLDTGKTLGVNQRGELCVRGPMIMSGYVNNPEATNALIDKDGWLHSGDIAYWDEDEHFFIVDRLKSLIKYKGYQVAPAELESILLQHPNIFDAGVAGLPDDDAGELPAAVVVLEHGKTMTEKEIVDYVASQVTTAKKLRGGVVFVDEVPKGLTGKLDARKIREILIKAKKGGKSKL
Sequence of Eukaryotic translation initiation factor 4E (P63073 whole entry): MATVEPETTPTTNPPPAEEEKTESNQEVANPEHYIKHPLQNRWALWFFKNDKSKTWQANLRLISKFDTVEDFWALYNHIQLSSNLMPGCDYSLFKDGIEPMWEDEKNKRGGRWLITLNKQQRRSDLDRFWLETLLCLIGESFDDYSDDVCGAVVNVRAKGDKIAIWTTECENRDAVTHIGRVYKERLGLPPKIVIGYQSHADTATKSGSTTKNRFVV

CC(Oc1ccccc1)C(=O)OCC(=O)N1CC(=O)Nc2ccccc21 (stereo not given)
AC50 [1]: > 100 µM (inactive)

O=c1[nH]c(N2CCN(Cc3ccc4c(c3)OCO4)CC2)nc2c1CCC2
AC50 [2]: 0.93 µM (active)

COc1ccc2c(c1)C(C)=CC(C)(C)N2C(=O)CNCc1ccc2c(c1)OCO2
AC50 [3]: 40.4 µM (active)
CC50 [4]: > 50 µM (active)

Cc1cccc(C(=N)NOC(=O)c2cccs2)c1
EC50 [5]: > 67.5 µM (inactive)

O=C(NNC(=S)NC1CCCCC1)c1ccccc1Cl
IC50 [6]: > 122 µM (inactive)

Clc1cccc(-c2ccc(CNCc3ccccn3)o2)c1
AC50 [7]: 94.4 µM (active)
IC50 (cells [8]): 3.05 µM (active)

O=C(CSc1nc2cc(C(=O)O)ccc2c(=O)n1-c1ccc(F)cc1)Nc1ccc(F)c(F)c1F
AC50 [2]: 2.65 µM (active)

CC(C)c1ccc2c(c1)C(N1CCNCC1)Cc1ccc(F)cc1S2 (stereo not given)
AC50 [9]: 38.2 µM (active)
EC50 [10]: > 120 µM (not active)
AC50 [11]: 6.71 µM (active)
AC50 [12]: 7.87 µM (active)
EC50 [13]: 25.7 µM (active)
EC50 [14]: > 38 µM (not active)
EC50 [15]: 11.6 µM (active)
CC50 [16]: 18.1 µM (active)
EC50 [17]: > 150 µM (inactive)
AC50 (INS1): 6.71 µM (active)
CC50 [18]: 16.3 µM (active)
CC50 [19]: 12.3 µM (active)
IC50 (cells [8]): 14.2 µM (active)

CC(=O)c1cccc(OCC(O)CNCCc2ccc(Cl)cc2)c1 (stereo not given)
EC50 (cells [20]): > 29.9 µM (inactive)
IC50 (cells [21]): > 29.9 µM (inactive)

COc1ccccc1NC(=O)Nc1nc(C(N)Cc2ccc(Cl)cc2)cs1 (stereo not given)
EC50 (Melanocortin receptor 4): > 89.2 µM (inactive)

C(=C\c1ccco1)/C1=NN(c2ccccc2)C(c2ccco2)C1 (stereo not given)
IC50 (Prothrombin): 14.8 µM (active)
IC50 [22]: 22.8 µM (active)
IC50 [23]: > 100 µM (inactive)

CCn1c(SCC(=O)Nc2ccc(C(C)=O)cc2)nc2nc3c(cc2c1=O)CCCC3
IC50 [24]: > 64 µM (inactive)
EC50 (Melanocortin receptor 4): > 89.2 µM (inactive)

CCc1c(O)n(C2CCCCC2)c(SCC(=O)Nc2nc3ccccc3s2)nc1=O
AC50 [1]: 29 µM (active)
EC50 (Streptococcus): 122 µM (active)
EC50 (Streptokinase A): 17.1 µM (active)
EC50 [25]: 11.8 µM (active)

O=c1c2ccccc2cnn1-c1ccc2ccccc2c1
EC50 [5]: > 67.5 µM (inactive)

CCC(NCCc1ccccc1)=C1C(=O)NC(=O)NC1=O
EC50 [26]: 14.5 µM (active)
EC50 (cells [20]): > 29.9 µM (inactive)
IC50 (cells [21]): > 29.9 µM (inactive)
EC50 [27]: > 112 µM (not active)

CN1c2ccc(-c3ccccc3)cc2[C@H]2[C@H](CCN2C(=O)Cc2ccccn2)[C@H]1CO
AC50 [2]: 6.13 µM (active)

Cc1ccc(-n2cccc2/C=C2/C(=N)N3C(=NC2=O)SN=C3S(C)(=O)=O)cc1
AC50 [28]: 0.598 µM (active)
IC50 (Prothrombin): 86.9 µM (active)
IC50 [22]: 26.2 µM (active)
IC50 [23]: > 100 µM (inactive)

CC1(C)Oc2ccc3ccc(=O)oc3c2C(/C=N/c2ccc(O)cc2)=C1O
EC50 (Melanocortin receptor 4): > 89.2 µM (inactive)
